One experiment concerns L1210 leukemia cells. Put plainly: Inhibition of proliferation of L1210 leukemia cells. In kind it is cell-based. To be noted: Mus musculus, L1210, 96 h; 4 days at 37° C., trypan blue count of surviving cells. The protocol: Measurement of the action of inhibiting proliferation of L1210 leukemia cells
L1210 leukemia cells were added to an RPMI medium containing 10% FCS (fetal calf serum), and the concentration of the cells was adjusted to 1×10^5 cells/ml. Each of the test compounds shown in Table 1 was dissolved in 99.5% ethanol. Prior to use, the final concentration of the ethanol solution was adjusted to less than 0.1%, and it was added to the culture medium. The culture medium was then maintained at 37° C. in a stationary condition for 4 days. After the cultivation, the number of surviving cells was measured by dyeing with trypan blue. As a control, 0.1% ethanol was used. A dose-response curve was plotted from the ratios of proliferation against the control, and IC50 was determined.

For another experiment, the system named is HSV type-1 (KOS). Put plainly: Inhibition of herpes simplex virus replication in human embryo lung cells, plaque assay on Vero cells. In kind it is cell-based, herpes simplex virus type-1 (strain KOS). To be noted: 4 μg/ml, 24 hrs. pretreatment and 24 hrs. after infection; m.o.i. 1; control 1.4 × 10^8; mean of at least three wells. The protocol: (§1) Measurement of inhibitory activities on herpes simplex virus replication
(§2) To evaluate the inhibitory effect of 2-chloro-4-(3,7-dimethyl-6-octenyl)-5-(6-carbomethoxyhexylidene)-2-cyclopentenone against herpes simplex virus [HSV] replication in vitro, human embryo lung cells [HELR66] were grown in 6-well Falcon plates in Eagle's minimal essential medium [MEM] supplemented with 5 percent fetal calf serum [CS] and antibiotics.
(§3) The test compound was dissolved in absolute ethanol and diluted to the appropriate concentrations with culture medium just before use. The cells were incubated at 37° C. in a humidified atmosphere containing 5 percent CO2 and 95 percent air. Confluent monolayers of the cells were treated with 4 μg/ml of the test compound for 24 hrs. before HSV infection. The test compound pretreated cells were infected with HSV type-1 (strain KOS) or HSV type-2 (strain YS-4) at a m.o.i. of 1. After 1 hr. of incubation at 37° C., the cells were further incubated for 24 hrs. with MEM containing with 2 percent CS, antibiotics and 4 μg/ml the test compound. Control media contained the identical concentration of ethanol. HSV infected HEL-R66 cells were harvested with a rubber policeman 24 hrs. after HSV inoculation and stored at -70° C. Titrations were performed by plaque assays on Vero cells.

For the next experiment, the system named is HSV type-2 (YS-4). The experiment is described as above. In kind it is cell-based, herpes simplex virus type-2 (strain YS-4). The settings on record: 4 μg/ml, 24 hrs. pretreatment and 24 hrs. after infection; m.o.i. 1; control 1.4 × 10^8; mean of at least three wells. The protocol: as §1, §2, §3
The subject of experiment [1] is Ehrlich ascites carcinoma cells. Put plainly: Antitumor effect on Ehrlich ascites carcinoma, survival of mice. To be noted: over the control. In kind it is in vivo, ICR mice. The protocol: Measurement of the antitumor effect on Ehrich ascites carcinoma
1×10^5 Ehrlich ascites carcinoma cells were intraperitoneally administered to ICR mice. After the lapse of 24 hours, 30 mg/kg/day or 20 mg/kg/day of 2-chloro-4-butyl-5-(6-carboxyhexylidene)-2-cyclopentenone (E-form) was intraperitoneally administered to the mice for 5 days. The periods of survival of these animals were examined.

Another experiment concerns B. subtilis ATCC 6633. Put plainly: Antimicrobial activity, serial two-fold dilution. In kind it is cell-based. To be noted: Bacillus subtilis, ATCC6633; Gram (+); heart infusion agar. The protocol: (§4) Measurement of the antimicrobial activity against Gram positive and negative bacterium
(§5) One loopful of cell suspension (10^8 cells/ml) was inoculated on heart infusion agar medium containing various levels of a compound of this invention (2-chloro-4-n-butyl-5-(6-carboxyhexylidene)-2-cyclopentenone). The minimum inhibitory concentrations (MIC) was determined by a standard serial two-fold dilution method.

Another experiment deals with P. aeruginosa IFO 3445. Put plainly: Antimicrobial activity, serial two-fold dilution. In kind it is cell-based. The settings on record: Pseudomonas aeruginosa, IFO3445; Gram (-); heart infusion agar. The protocol: as §4, §5
In another experiment the test system is P. vulgaris H × 19. Put plainly: Antimicrobial activity, serial two-fold dilution. In kind it is cell-based. The settings on record: Proteus vulgaris; Gram (-); heart infusion agar. The protocol:
as §4, §5

A further experiment deals with S. aureus MS 353. Put plainly: Antimicrobial activity, serial two-fold dilution. In kind it is cell-based. To be noted: Staphylococcus aureus, MS353; Gram (+); heart infusion agar. The protocol:
as §4, §5

The test system of experiment [2] is L1210 mouse leukemia cells. To be noted: Biochem. Biophys. Res. Commun., 105, 956 (1982); cited from earlier work.

Results on seven molecules are retold here after patent US4689426A, “5-alkylidene-2-halo-4-substituted-2-cyclopentenone and process for production thereof” (Teijin Limited, priority 1983, dated 1987).

Converted amounts (≈) assume the structure as drawn. A value given as a limit tells only on which side of the number the result lay.

The IC50 is the point on the concentration scale where inhibition reaches its midpoint. Lower therefore signals greater potency in that assay. Take `CCCCC1C=C(Br)C(=O)/C1=C/CCCCCC(=O)OC` (single isomer, unassigned) [2-bromo-4-butyl-5-(6-methoxycarbonylhexylidene)-2-cyclopentenone]: the IC50 in the experiment with L1210 leukemia cells came out at 0.2 µg/mL (≈ 0.56 µM).
Still for that read-out and setting: the value for `CCCCC1C=C(Br)C(=O)/C1=C\CCCCCC(=O)OC` (single isomer, unassigned) [2-bromo-4-butyl-5-(6-methoxycarbonylhexylidene)-2-cyclopentenone] was 0.1 µg/mL (≈ 0.28 µM); that for `CCCCC1C=C(Cl)C(=O)/C1=C/CCCCCC(=O)OC` (single isomer, unassigned) [2-chloro-4-butyl-5-(6-methoxycarbonylhexylidene)-2-cyclopentenone] was 0.1 µg/mL (≈ 0.32 µM); that for `CCCCC1C=C(Cl)C(=O)/C1=C\CCCCCC(=O)OC` (single isomer, unassigned) [2-chloro-4-butyl-5-(6-methoxycarbonylhexylidene)-2-cyclopentenone] was < 0.3 µg/mL.
Consider `COC(=O)CCCCCC=C1C(=O)C(Cl)=CC1CCC(C)CCC=C(C)C` (stereo not shown) [2-chloro-4-(3,7-dimethyl-6-octenyl)-5-(6-carbomethoxyhexylidene)-2-cyclopentenone], for which the Virus yield in the experiment with HSV type-1 (KOS) is recorded as 3.1 × 10^4 pfu/ml; in the experiment with HSV type-2 (YS-4), 5.4 × 10^4 pfu/ml.
For orientation: MIC means the lowest concentration found to suppress growth. Read a low MIC as greater potency. Consider `CCCCC1C=C(Cl)C(=O)/C1=C/CCCCCC(=O)O` (stereo not shown) [2-chloro-4-butyl-5-(6-carboxyhexylidene)-2-cyclopentenone], for which the “increase of life span (ILS%)” value is listed as 40.2% in experiment [1] (20 mg/kg/day i.p. for 5 days) and 30.7% in [1] (30 mg/kg/day i.p. for 5 days). Moreover, the MIC against B. subtilis ATCC 6633 is 6.24 µg/mL (≈ 20.9 µM); with P. aeruginosa IFO 3445 it was 100 µg/mL (≈ 335 µM); against P. vulgaris H × 19 it was 25 µg/mL (≈ 83.7 µM); in the experiment with S. aureus MS 353, 100 µg/mL (≈ 335 µM).
On to `CCCCC[C@H](O)/C=C/[C@H]1C(=O)C[C@H](O)[C@@H]1C/C=C\CCCC(=O)O` [PGD2], for which, in [2], the “IC50 of PGD2 on L1210 cells” value was 2.4 micrograms/ml.
